11 molecules from ChEMBL document CHEMBL4371065, “Design and synthesis of biaryloxazolidinone derivatives containing a rhodanine or thiohydantoin moiety as novel antibacterial agents against Gram-positive bacteria” (Bioorg Med Chem Lett, 2019) can be followed below.

In brackets after ≈: the same amount, converted by molar mass. A value given as a limit tells only on which side of the number the result lay.

Data set [1] deals with Staphylococcus aureus. Description: Antibacterial activity against Staphylococcus aureus ATCC 29213 by broth liquid microdilution method. Format: functional.
Data set [2] concerns Staphylococcus aureus. Description: Antibacterial activity against methicillin-resistant Staphylococcus aureus by broth liquid microdilution method. It counts as functional.
Data set [3] deals with Staphylococcus aureus. In words: Antibacterial activity against methicillin-sensitive Staphylococcus aureus by broth liquid microdilution method. Format: functional.
For data set [4], the system named is Enterococcus faecalis. In words: Antibacterial activity against linezolid-resistant Enterococcus faecalis by broth liquid microdilution method. Format: functional.
The subject of data set [5] is Enterococcus faecium. Description: Antibacterial activity against vancomycin-resistant Enterococcus faecium by broth liquid microdilution method. It counts as functional.
Data set [6] deals with Staphylococcus aureus. Description: Antibacterial activity against clinical isolates of methicillin-sensitive Staphylococcus aureus by broth liquid microdilution method. Format: functional.
Data set [7] has as its system Enterococcus faecalis. Description: Antibacterial activity against clinical isolates of linezolid-resistant Enterococcus faecalis by broth liquid microdilution method. It counts as functional.
In data set [8] the test system is Enterococcus faecium. In words: Antibacterial activity against clinical isolates of vancomycin-resistant Enterococcus faecium by broth liquid microdilution method. Format: functional.
For another data set, the system named is HepG2. Description: Cytotoxicity against human HepG2 cells after 48 hrs by MTT assay. Format: cell-based. As to conditions: HepG2, 48 h.
Another data set deals with T1, MAO-A (Homo sapiens, UniProt P21397).
T1 sequence (P21397 whole entry): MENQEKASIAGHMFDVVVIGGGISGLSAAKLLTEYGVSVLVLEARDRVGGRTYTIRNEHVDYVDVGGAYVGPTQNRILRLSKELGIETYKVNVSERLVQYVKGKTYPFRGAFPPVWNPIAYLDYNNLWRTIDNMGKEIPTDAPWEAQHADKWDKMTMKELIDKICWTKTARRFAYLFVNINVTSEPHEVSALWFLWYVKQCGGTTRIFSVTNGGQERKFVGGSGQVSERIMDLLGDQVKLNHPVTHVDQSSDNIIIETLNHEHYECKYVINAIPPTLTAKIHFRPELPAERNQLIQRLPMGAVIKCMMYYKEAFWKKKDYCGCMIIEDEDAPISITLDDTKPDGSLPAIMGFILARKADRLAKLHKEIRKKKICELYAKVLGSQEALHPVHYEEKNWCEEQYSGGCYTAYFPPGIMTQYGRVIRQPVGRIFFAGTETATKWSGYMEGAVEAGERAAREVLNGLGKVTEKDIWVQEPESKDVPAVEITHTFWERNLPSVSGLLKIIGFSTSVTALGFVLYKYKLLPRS
In words: Inhibition of recombinant human full length N-terminal FLAG-tagged MAO-A expressed in sf9 cells at 30 uM preincubated for 15 mins followed by substrate addition and measured after 60 mins by luminescence assay relative to control.

For `CC(=O)NC[C@H]1CN(c2ccc(-c3ccc(/C=C4\NC(=S)N(C(C)C)C4=O)cc3)c(F)c2)C(=O)O1`, the MIC against Staphylococcus aureus [1] was 1 µg/mL (≈ 2.01 µM); with Staphylococcus aureus [2] it was 1 µg/mL (≈ 2.01 µM); against Staphylococcus aureus [3], 1 µg/mL (≈ 2.01 µM); against Enterococcus faecalis [4], 0.5 µg/mL (≈ 1.01 µM); against Enterococcus faecium [5] it was 0.5 µg/mL (≈ 1.01 µM).

As for `CC(=O)NC[C@H]1CN(c2ccc(-c3ccc(/C=C4\SC(=S)N(CCCN5CCCCC5)C4=O)cc3)c(F)c2)C(=O)O1`, the MIC with Staphylococcus aureus [1], against Staphylococcus aureus [2], against Staphylococcus aureus [3], with Enterococcus faecalis [4] and in the data set on Enterococcus faecium [5] was 1 µg/mL (≈ 1.68 µM) each time.

Regarding `CCCN1C(=O)/C(=C/c2ccc(-c3ccc(N4C[C@H](CNC(C)=O)OC4=O)cc3F)cc2)NC1=S`, the MIC against Staphylococcus aureus [1], in the data set on Staphylococcus aureus [2], against Staphylococcus aureus [3], in the data set on Enterococcus faecalis [4] and against Enterococcus faecium [5] was 2 µg/mL (≈ 4.03 µM) throughout.

For the molecule `CC(=O)NC[C@H]1CN(c2ccc(-c3ccc(/C=C4\SC(=S)N(CC(=O)O)C4=O)cc3)c(F)c2)C(=O)O1`, the MIC against Staphylococcus aureus [1], in the data set on Staphylococcus aureus [2], in the data set on Staphylococcus aureus [3], against Enterococcus faecalis [4] and with Enterococcus faecium [5] was 1 µg/mL (≈ 1.89 µM) each time.

`CC(=O)NC[C@H]1CN(c2ccc(-c3ccc(/C=C4\NC(=S)NC4=O)cc3)c(F)c2)C(=O)O1`: the MIC is 0.125 µg/mL (≈ 0.275 µM) against Staphylococcus aureus [1]; 0.125 µg/mL (≈ 0.275 µM) against Staphylococcus aureus [2]; 0.125 µg/mL (≈ 0.275 µM) against Staphylococcus aureus [3]; 0.125 µg/mL (≈ 0.275 µM) in the data set on Enterococcus faecalis [4]; 0.125 µg/mL (≈ 0.275 µM) with Enterococcus faecium [5]; 0.5 to 1 µg/mL (≈ 1.1 to 2.2 µM) in the data set with Staphylococcus aureus [6]. Also, the MIC in the data set on Enterococcus faecalis [7] and in the data set on Enterococcus faecium [8] was 0.25 to 0.5 µg/mL (≈ 0.55 to 1.1 µM) throughout. The molecule also yielded an IC50 with HepG2 of 61.7 µM. For the same molecule, the inhibition at 1 h, 30 µM on MAO-A amounted to 99%.

On to `CCCN1C(=O)/C(=C/c2ccc(-c3ccc(N4C[C@H](CNC(C)=O)OC4=O)cc3F)cc2)SC1=S`, for which the MIC against Staphylococcus aureus [1], with Staphylococcus aureus [2], against Staphylococcus aureus [3], in the data set on Enterococcus faecalis [4] and against Enterococcus faecium [5] was 2 µg/mL (≈ 3.89 µM) in each case.

For the molecule `CC(=O)NC[C@H]1CN(c2ccc(-c3ccc(/C=C4\SC(=S)N(C(C(=O)O)c5ccccc5)C4=O)cc3)c(F)c2)C(=O)O1` (stereo not given in full), the MIC in the data set with Staphylococcus aureus [1], in the data set with Staphylococcus aureus [2], in the data set on Staphylococcus aureus [3], against Enterococcus faecalis [4] and with Enterococcus faecium [5] was 1 µg/mL (≈ 1.65 µM) each time.

In the case of `CC(=O)NC[C@H]1CN(c2ccc(-c3ccc(/C=C4\NC(=S)N(CCCN5CCCCC5)C4=O)cc3)c(F)c2)C(=O)O1`, the MIC against Staphylococcus aureus [1], against Staphylococcus aureus [2], against Staphylococcus aureus [3], against Enterococcus faecalis [4] and against Enterococcus faecium [5] was 1 µg/mL (≈ 1.73 µM) in each case.

On to `CC(=O)NC[C@H]1CN(c2ccc(N3CCOCC3)c(F)c2)C(=O)O1` [LINEZOLID], for which the MIC is 1 µg/mL (≈ 2.96 µM) in the data set with Staphylococcus aureus [1]; 1 µg/mL (≈ 2.96 µM) with Staphylococcus aureus [2]; 1 µg/mL (≈ 2.96 µM) against Staphylococcus aureus [3]; greater than 16 µg/mL in the data set with Enterococcus faecalis [4]; 2 µg/mL (≈ 5.93 µM) with Enterococcus faecium [5]; 1 to 4 µg/mL (≈ 2.96 to 11.9 µM) with Staphylococcus aureus [6]. Besides, the MIC in the data set on Enterococcus faecalis [7] is greater than 16 µg/mL; with Enterococcus faecium [8], 1 to 4 µg/mL (≈ 2.96 to 11.9 µM). Moreover, the IC50 in the data set with HepG2 was greater than 25 µM. Also, at MAO-A, the inhibition at 1 h, 30 µM was found to be 76%.

Consider `CC(=O)NC[C@H]1CN(c2ccc(-c3ccc(/C=C4\SC(=S)N(C)C4=O)cc3)c(F)c2)C(=O)O1`, for which the minimum inhibitory concentration (MIC) with Staphylococcus aureus [1], against Staphylococcus aureus [2], against Staphylococcus aureus [3], in the data set on Enterococcus faecalis [4] and against Enterococcus faecium [5] was 0.25 µg/mL (≈ 0.515 µM) each time.

As to `CCOC(=O)CN1C(=O)/C(=C/c2ccc(-c3ccc(N4C[C@H](CNC(C)=O)OC4=O)cc3F)cc2)NC1=S`, the MIC in the data set with Staphylococcus aureus [1], in the data set with Staphylococcus aureus [2], in the data set on Staphylococcus aureus [3], against Enterococcus faecalis [4] and against Enterococcus faecium [5] was 1 µg/mL (≈ 1.85 µM) throughout.
